{
  "source": "patent US20080081835A1",
  "about": "“Use of Ltb4 Inhibitors for the Treatment of B-Cell Leukemias and Lymphomas” (priority 2004, published 2008)",
  "key": {"serum proteins": {"tested_on": "serum proteins", "details": "Can. J. Physiol. Pharmacol. 67, 456 (1989); cited from earlier work"}, "[1]": {"tested_on": "malignant cells from patients with acute or chronic myelogenous leukemia", "details": "cited from earlier work"}, "B-CLL cells [2]": {"tested_on": "B-CLL cells", "experiment": "DNA synthesis (3H-thymidine incorporation) in B-CLL cells activated by CD40L-L cells, 96 hr co-culture", "assay_type": "cell-based, human", "description": "FIG. 3 depicts the effects of leukotriene biosynthesis inhibitors on CD40L-induced thymidine incorporation in B-CLL cells. B-CLL cells (2×10^5) were co-cultured with either irradiated L cells alone (L), irradiated CD40L-L cells or irradiated CD40L-L cells plus indicated inhibitor for 96 hr. When inhibitors were used, B-CLL cells were pre-treated with the inhibitor for 30 min prior co-culturing with L cells or CD40L-L cells. The inhibitors used were: […]. The control result reported in the Figure represents B-CLL cells co-cultured with irradiated CD40L-L cells alone. ^3H-thymidine (1 μCi) was present for the final eight hours. Activation of B-CLL cells with CD40L-L treatment led to between 3580 and 15369 cpm (^3H-thymidine) incorporation (control) in different experiments. This was set as 100% in each experiment. […] Student's t-test was used to calculate statistics i.e. control vs. control plus indicated compound(s) (** P<0.01, *** P<0.001). B-cells were isolated from patients suffering with B-CLL or B-prolymphocytic leukemia (B-PLL) who had not received chemotherapy within during the previous six weeks (see Table 1 below). Peripheral blood samples were obtained after informed consent and with local ethics committee approval. Blood samples were Ficoll-Isopaque purified and washed twice in phosphate buffered saline (PBS). After that, cells were either frozen in PBS with 50% human AB serum and 10% dimethylsulfoxide or analyzed fresh. Frozen cell samples were thawed and washed in ice cold fetal calf serum and subsequently in PBS before analysis. Cells from two patients were used twice, both freshly isolated cells and after freezing with similar results. […]. The purity of the isolated cells was estimated by flow cytometric analysis (with FACS Calibur, Becton Dickinson, Mountain View, Calif.). Morphological analysis was performed after staining with May-Grunewald/Giemsa solution. The purity of B-CLL and B-PLL cells was >98%. Purified B-CLL cells were cultured in RPMI 1640 medium, supplemented with 10% FCS, 2 mM L-glutamine, 100 U/mL penicillin and 100 μg/mL streptomycin and incubated at […] in an atmosphere of 5% CO2. 2×10^5 of B-CLL cells were seeded in 200 μL medium in 96-well plates. B-CLL cells were pretreated with MK-886 (a specific FLAP inhibitor) (10^−6 to 10^−9 M) or BWA4C (a specific 5-LO inhibitor) (10^−7 to 10^−9 M) for 30 min, before co-culturing with irradiated (15,000 Rad) CD40L expressing L (CD40L-L) cells or control L (L) cells in the presence of inhibitors. LTB4 (10^−7 M) was present in the indicated cultures. Each sample was represented by triplicates. 1 μCi ^3H-thymidine was present in the wells for the final eight […] of the 96 hr cultures. The cells were harvested onto glass fibre filter and radioactivity was measured in a liquid scintillation counter."}, "human lung cancer cells": {"tested_on": "human lung cancer cells", "details": "cited from earlier work"}, "B-CLL cells [3]": {"tested_on": "B-CLL cells", "experiment": "Flow cytometry (FACS) analysis of CD23, CD54 and CD150 expression in CD40L activated B-CLL cells", "assay_type": "cell-based, human", "details": "for effect on CD40-induced increased expression of CD23, CD54 and CD150: 100 nM, 96 hrs", "description": "FIG. 4 depicts the effects of leukotriene biosynthesis inhibitors on the expression of CD23, CD54 and CD150 in CD40L activated B-CLL. Purified B-CLL cells were co-cultured with either L cells or CD40L-L cells in the absence or presence of MK886 (10^−7 M), BWA4C (10^−7 M), and/or LTB4 (10^−7 M) for 96 hrs. When inhibitors were used, B-CLL cells were pre-treated with the inhibitor for 30 min prior to co-culturing with L cells or CD40L-L cells. B-CLL cells were collected and analysed by FACS with antibodies against CD23, CD54 or CD150. The figure depicts one typical experiment out of six. […] Cultured (described above) B-CLL cells were collected (without the plastic attached L cells) and used for FACS detection. Surface marker expression was detected by indirect immunofluorescence. One million cells/sample were washed in cold PBS containing 1% FCS and 0.1% sodium azide and then exposed to the relevant antibodies. The cells were washed and incubated with the RPE conjugated secondary antibody. All incubations were done at 4° C. Samples were run on a Becton Dickinson FACScan flow cytometer (Becton Dickinson, Mountain View, Calif.). The CellQuest software (Becton Dickinson) was used both for acquisition and analysis of the samples. Ten thousand events were collected on a FACScan flow cytometer, and the results were analysed using CellQuest (Becton Dickinson) software. Only the viable cells were considered for analysis based on their light scatter (FSC/SSC) characteristics. The following antibodies were used: MAb MHM-6 (anti-CD23, from Dr. M. Rowe, University of Wales, Cardiff, Wales, UK), MAb LB-2 (anti-CD54, from E. A. Clark, University of Washington, Seattle, Wash.), MAb IPO-3 (anti-SLAM, kind gift from S. Sidorenko, Acad. of Science of Ukraine, Kiev, Ukraine) and RPE conjugated rabbit anti-mouse Ig F(ab′)2 (Dako, Copenhagen, Denmark) were used as secondary antibody."}, "B-CLL cells [4]": {"tested_on": "B-CLL cells", "experiment": "Biosynthesis of LTB4 by intact B-CLL cells (HPLC analysis)", "assay_type": "cell-based, human", "details": "intact cells preincubated with diamide (100 μM, two minutes), then A23187 (1 μM) and arachidonic acid (40 μM); mean of six experiments; without diamide 2.6±0.8", "description": "pre-incubated (intact cells) with diamide (100 μM) for two minutes, followed by stimulation with A23187 (1 μM) and arachidonic acid (40 μM).\n10×10^6 cells were suspended in 1 mL PBS and pre-incubated for two minutes with/without azodicarboxylic acid bis(dimethylamide), abbreviated diamide, (100 μM) prior to stimulation with arachidonic acid (40 μM) and/or calcium ionophore A23187 (1 μM). The cells were stimulated for five minutes at 37° C. and the incubations were terminated with 1 mL methanol.\nAfter addition of 0.5 ml PBS and the internal standard PGB1 (100 pmol) to the samples, the cells were centrifuged (2500 rpm, 5 min). The supernatant was subsequently subjected to solid phase extraction on Chromabond C18 columns (200 mg, Macherey & Nagel). The methanol eluate was analysed on Waters Alliance 2695 reverse phase HPLC and detected with Waters PDA 996. Methanol:water:trifiuoroacetic acid (70:30:0.007, v/v) was used as mobile phase at a flow rate of 1.2 mL/min. Qualitative analysis was performed by comparison of retention times of synthetic standards and quantitative determinations were performed by computerized integration of the area of eluted peaks."}},
  "data": [
    {"smiles": "CC(C)c1ccc2c(c1)c(SC(C)(C)C)c(CC(C)(C)C(=O)O)n2Cc1ccc(Cl)cc1", "note": "[MK-886]", "values": [
      {"measurement": "binding to serum proteins", "setting": "serum proteins", "value": "relatively high binding"},
      {"measurement": "antiproliferative effects", "setting": "[1]", "value": "antiproliferative effects"},
      {"measurement": "effect on DNA synthesis induced by CD40-ligand stimulation", "setting": "B-CLL cells [2]; 100 nM", "value": "markedly inhibited DNA synthesis"},
      {"measurement": "inhibition at 0.1 µM", "setting": "B-CLL cells [2]; Homo sapiens, 100 nM inhibitor, CD40L-L stimulated B-CLL cells, 96 hr, read-out: inhibitory action on thymidine incorporation", "value": 38, "unit": "%"},
      {"measurement": "inhibition at 1 µM", "setting": "B-CLL cells [2]; Homo sapiens, 1 μM inhibitor, CD40L-L stimulated B-CLL cells, 96 hr, read-out: inhibitory action on thymidine incorporation", "value": 46, "unit": "%"},
      {"measurement": "antiproliferative effects", "setting": "human lung cancer cells", "value": "antiproliferative effects"},
      {"measurement": "effect on CD40-induced increased expression of CD23, CD54 and CD150", "setting": "B-CLL cells [3]", "value": "markedly counteracted"}
    ]},
    {"smiles": "CC(=O)N(O)C/C=C/c1cccc(Oc2ccccc2)c1", "note": "[BWA4C]", "values": [
      {"measurement": "effect on thymidine incorporation", "setting": "B-CLL cells [2]; 10 nM", "value": "significant inhibitory effect"},
      {"measurement": "potency to block DNA synthesis compared with MK-886", "setting": "B-CLL cells [2]; FIG. 3B", "value": "even more potent inhibitor than MK-886"},
      {"measurement": "effect on CD40-induced increased expression of CD23, CD54 and CD150", "setting": "B-CLL cells [3]", "value": "markedly counteracted"}
    ]},
    {"smiles": "CN(C)C(=O)/N=N/C(=O)N(C)C", "note": "[diamide, Azodicarboxylic acid bis(dimethylamide)]", "values": [
      {"measurement": "production of LTB4", "setting": "B-CLL cells [4]", "value": "33.5±1.2", "unit": "pmol/10^6 cells"}
    ]},
    {"smiles": "CCCCC/C=C\\C[C@@H](O)/C=C/C=C/C=C\\[C@@H](O)CCCC(=O)O", "note": "[LTB4]", "values": [
      {"measurement": "reversal of the inhibitory action of 100 nM BWA4C on thymidine incorporation", "setting": "B-CLL cells [2]; exogenous addition, 150 nM", "value": "almost completely reversed"},
      {"measurement": "reversal of the inhibitory effect of MK-886 on thymidine incorporation", "setting": "B-CLL cells [2]; exogenously added, 150 nM", "value": "almost completely reversed"},
      {"measurement": "effect on CD40-induced thymidine incorporation, alone", "setting": "B-CLL cells [2]; final concentration 150 nM, no inhibitor", "value": "did not amplify"},
      {"measurement": "reversal of the inhibitory effect of the inhibitors (MK-886, BWA4C) on antigen expression", "setting": "B-CLL cells [3]; 150 nM", "value": "almost completely reversed"},
      {"measurement": "effect alone on the expression of CD23, CD54 and CD150", "setting": "B-CLL cells [3]; without inhibitor", "value": "did not cause any significant effect"}
    ]}
  ]
}
